target: T1, hURAT1 Transporter (Homo sapiens, UniProt Q96S37); assay: Uric Acid Uptake Assay; format: cell-based; settings: HEK293/urat1 cells; C14 Uric Acid 40 μM; 10 minutes at room temperature
T1 construct: Full-length human URAT1 gene (SLC22A12) was subcloned from plasmid pCMV6-XL5
T1 sequence (Q96S37 1-553): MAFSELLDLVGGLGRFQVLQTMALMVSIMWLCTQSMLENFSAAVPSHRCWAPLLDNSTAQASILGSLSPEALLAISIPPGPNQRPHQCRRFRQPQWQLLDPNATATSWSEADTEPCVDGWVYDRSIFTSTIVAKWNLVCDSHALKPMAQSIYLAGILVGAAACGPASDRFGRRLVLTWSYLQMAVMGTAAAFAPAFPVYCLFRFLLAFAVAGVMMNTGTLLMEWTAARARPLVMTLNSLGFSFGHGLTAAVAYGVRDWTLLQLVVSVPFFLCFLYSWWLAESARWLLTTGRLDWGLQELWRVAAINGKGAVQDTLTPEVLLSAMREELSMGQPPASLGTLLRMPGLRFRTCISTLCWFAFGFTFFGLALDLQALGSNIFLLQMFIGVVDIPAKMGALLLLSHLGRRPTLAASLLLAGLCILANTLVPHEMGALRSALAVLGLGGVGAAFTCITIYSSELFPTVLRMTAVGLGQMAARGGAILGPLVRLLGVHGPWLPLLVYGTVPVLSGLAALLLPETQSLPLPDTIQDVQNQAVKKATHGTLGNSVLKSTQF
Excerpt: Creation of Stable Cell Lines Expressing hURAT1 Transporter: Full-length human URAT1 gene (SLC22A12) was subcloned from plasmid pCMV6-XL5 (Origene) into eukaryotic expression plasmid pCMV6/Neo (Origene) using Not I restriction sites. Gene sequencing confirmed the sequence of hURAT1 as outlined in Genbank (Accession #NM_144585.2). HEK293 human embryonic kidney cells (ATCC#CRL-1573) were propagated in EMEM tissue culture medium as described by ATCC in an atmosphere of 5% CO2 and 95% air. Transfections of HEK293 cells with the pCMV6/Neo/URAT1 construct were performed using L2000 transfection reagent (Invitrogen) as described by the manufacturer. After 24 h the transfected cells were split into 10 cm tissue culture plates and grown for 1 day after which the medium was replaced with fresh growth medium containing G418 (Gibco) at 0.5 mg/ml final concentration. Drug-resistant colonies were selected after approximately 8 days and then tested for ^14C-uric acid transport activity. The HEK293/urat1 cells are plated on Poly-D-Lysine Coated 96-well Plates at a density of 75,000 cells per well.
Cells were grown overnight (20-26 hours) at 37° C. in an incubator. Plates were allowed to come to room temperature and media was washed out with one wash of […] of Wash Buffer (125 mM Na Gluconate, 10 mM Hepes ph 7.3). Compound or vehicle is added in assay buffer with C14 Uric Acid for a final concentration of 40 μM Uric Acid with a specific activity of 54 mCi/mmol. Assay Buffer is 125 mM Sodium Gluconate, 4.8 mM Potassium Gluconate, 1.2 mM Potassium phosphate, monobasic, 1.2 mM magnesium sulfate, 1.3 mM Ca Gluconate, 5.6 mM Glucose, 25 mM HEPES, pH 7.3. Plates were incubated at room temperature for 10 minutes then washed 3 times with 50 μl Wash Buffer and 3 times with 250 μl Wash Buffer. Microscint 20 Scintillation Fluid was added and plates were incubated overnight at 45° C. to equilibrate. Plates are then read on the TopCount Plate Reader and an EC50 value generated. (See Enomoto et al, Nature, 2002, 417, 447-451 and Anzai et al, J. Biol. Chem., 2004, 279, 45942-45950.).
Compounds prepared as described herein, were examined according to the procedure described above and EC50 values generated. […] (N/A means data not available).

| SMILES | EC50 |
| --- | --- |
| Cc1ccc(-n2c(C)nnc2SCC(=O)O)cc1C | > 30 µM |
| Cc1nnc(SCC(=O)O)n1-c1cccc2cccnc12 | > 30 µM |
| CCOC(=O)CSc1nnc(C(F)(F)F)n1-c1c(C)cc(C)c2c1CCCC2 [ethyl 2-(4-(2,4-dimethyl-5,6,7,8-tetrahydronaphthalen-1-yl)-5-(trifluoromethyl)-4H-1,2,4-triazol-3-ylthio)acetate] | > 30 µM |
| CCOC(=O)C(C)(C)Sc1nnc(N)n1-c1ccc(C2CC2)c2ccccc12 [ethyl 2-(5-amino-4-(4-cyclopropylnaphthalen-1-yl)-4H-1,2,4-triazol-3-ylthio)-2-methylpropanoate] | > 30 µM |
| CC(C)(Sc1nnc(N)n1-c1ccc(C2CC2)c2ccccc12)C(=O)O [Example 5, 2-(5-amino-4-(4-cyclopropylnaphthalen-1-yl)-4H-1,2,4-triazol-3-ylthio)-2-methylpropanoic acid] | > 30 µM |
| CCc1ccc(-n2c(Br)nnc2SCC(=O)OC)c2ccccc12 | 0.001 to 1 µM |
| O=C(O)CSc1nnc(C(F)(F)F)n1-c1cccc2ccccc12 | 1 to 30 µM |
| CCOC(=O)CCCSc1nnc(Br)n1-c1ccc(C2CC2)c2ccccc12 | 1 to 30 µM |
| Cc1ccc(-n2cnnc2SCC(=O)O)c2c1CCCC2 | > 30 µM |
| COC(=O)CSc1nnc(Br)n1-c1ccc(C2CC2)c2ccccc12 [Example 102, Methyl 2-(5-bromo-4-(4-cyclopropylnaphthalen-1-yl)-4H-1,2,4-triazol-3-ylthio)acetate] | 1 to 30 µM |
| CCOC(=O)CSc1nnc(-c2ccccc2)n1-c1ccc(C2CC2)c2ccccc12 | 1 to 30 µM |
| Cc1nnc(SCC(=O)O)n1-c1ccccc1C(F)(F)F | > 30 µM |
| O=C(O)CSc1nnc(Br)n1-c1cc(C(F)(F)F)ccc1Cl | > 30 µM |
| COc1ccc(Cl)c(-n2c(Br)nnc2SCC(=O)O)c1 | > 30 µM |
| Cc1nnc(SCC(=O)O)n1-c1ccccc1Cl | > 30 µM |
| CCOC(=O)CSc1nncn1-c1c(C)cc(C)c2c1CCCC2 | 1 to 30 µM |
| CC(C)(C)OC(=O)C(C)(C)Sc1nnc(Br)n1-c1ccc(C2CC2)c2ccccc12 [Example 101, tert-Butyl 2-(5-bromo-4-(4-cyclopropylnaphthalen-1-yl)-4H-1,2,4-triazol-3-ylthio)-2-methylpropanoate] | > 30 µM |
| CCOC(=O)CSc1nnc(C(F)F)n1-c1ccc(CC)c2ccccc12 [ethyl 2-(5-(difluoromethyl)-4-(4-ethylnaphthalen-1-yl)-4H-1,2,4-triazol-3-ylthio)acetate] | > 30 µM |
| CCOC(=O)CCSc1nnc(Br)n1-c1ccc(C2CC2)c2ccccc12 [ethyl 3-(5-bromo-4-(4-cyclopropylnaphthalen-1-yl)-4H-1,2,4-triazol-3-ylthio)propanoate] | 1 to 30 µM |
| CCc1ccc(-n2c(CF)nnc2SCC(=O)O)c2ccccc12 | 1 to 30 µM |
| CCOC(=O)CSc1nnc(N)n1-c1ccc(C2CC2)c2ccccc12 | > 30 µM |
| Nc1nnc(SCC(=O)O)n1-c1ccc(C2CC2)c2ccccc12 | 1 to 30 µM |

| SMILES | EC50 |
| --- | --- |
| CC(Sc1nnc(N)n1-c1ccc(C2CC2)c2ccccc12)C(=O)O (stereo not drawn) | 1 to 30 µM |
| O=C(O)CSc1nnc(Br)n1-c1cccc2ccccc12 | 1 to 30 µM |
| O=C(O)CSc1nnc(Br)n1-c1cccc2c(OCC3CC3)cccc12 | > 30 µM |
| CCOC(=O)CSc1nnc(CF)n1-c1ccc(C)c2c1CCCC2 [ethyl 2-(5-(fluoromethyl)-4-(4-methyl-5,6,7,8-tetrahydronaphthalen-1-yl)-4H-1,2,4-triazol-3-ylthio)acetate] | 1 to 30 µM |
| CCOC(=O)CCSc1nnc(N)n1-c1ccc(C2CC2)c2ccccc12 [ethyl 3-(5-amino-4-(4-cyclopropylnaphthalen-1-yl)-4H-1,2,4-triazol-3-ylthio)propanoate] | 1 to 30 µM |
| Cc1nnc(SCC(=O)O)n1-c1ccc(N(C)C)c2ccccc12 | > 30 µM |
| Cc1ccc(-n2c(SCC(=O)O)nnc2C(F)(F)F)c2c1CCCC2 | 0.001 to 1 µM |
| O=C(O)CSc1nnc(C(F)F)n1-c1ccc(C2CC2)c2ccccc12 | 1 to 30 µM |
| Cc1ccc(-n2cnnc2SCC(=O)O)c2c1NCCC2 | > 30 µM |
| O=C(O)CCCSc1nnc(Br)n1-c1ccc(C2CC2)c2ccccc12 | 0.001 to 1 µM |
| CCOC(=O)CCCSc1nnc(N)n1-c1ccc(C2CC2)c2ccccc12 | 1 to 30 µM |
| COc1ccc2c(Br)ccc(-n3c(Br)nnc3SCC(=O)O)c2c1 | 1 to 30 µM |
| Cc1ccc(-n2c(Br)nnc2SCC(=O)O)c2ccccc12 | 1 to 30 µM |
| Cc1cc(C)c(-n2c(SCC(=O)O)nnc2C(F)(F)F)c2c1CCCC2 [Example 1A, 2-(4-(2,4-Dimethyl-5,6,7,8-tetrahydronaphthalen-1-yl)-5-(trifluoromethyl)-4H-1,2,4-triazol-3-ylthio)acetic acid] | 1 to 30 µM |
| CCc1ccc(-n2c(Br)nnc2SC(C)(C)C(=O)O)c2ccccc12 [2-(5-bromo-4-(4-ethylnaphthalen-1-yl)-4H-1,2,4-triazol-3-ylthio)-2-methylpropanoic acid] | 0.001 to 1 µM |
| CCOC(=O)C(C)Sc1nnc(N)n1-c1ccc(C2CC2)c2ccccc12 (stereo not drawn) | 1 to 30 µM |
| CCOC(=O)CSc1nnc(C(F)(F)F)n1-c1ccc(C)c2c1CCCC2 | 1 to 30 µM |
| COc1ccc(-n2c(SCC(=O)O)nnc2C(F)F)c2c1CCCC2 | 1 to 30 µM |
| Cc1ccc(-n2c(SCC(=O)O)nnc2C(F)F)c2c1NCCC2 | > 30 µM |
| CCOC(=O)CSc1nnc(C(F)F)n1-c1c(C)cc(C)c2ccccc12 | > 30 µM |
| Cc1nnc(SCC(=O)O)n1-c1ccc(C(F)(F)F)cc1 | > 30 µM |
| CC(C)(C)c1ccc(-n2c(Br)nnc2SCC(=O)O)c(Cl)c1 | > 30 µM |

| SMILES | EC50 |
| --- | --- |
| CC(C)(Sc1nnc(C(F)(F)F)n1-c1ccc(C2CC2)c2ccccc12)C(=O)O [Example 9, 2-(4-(4-Cyclopropylnaphthalen-1-yl)-5-(trifluoromethyl)-4H-1,2,4-triazol-3-ylthio)-2-methylpropanoic acid] | 0.001 to 1 µM |
| CCOC(=O)CSc1nncn1-c1ccc(C)c2c1CCCN2 | > 30 µM |
| Cc1nnc(SCC(=O)O)n1-c1ccc2c(c1)OCCO2 | > 30 µM |
| CCOC(=O)CSc1nnc(C(F)F)n1-c1ccc(OC)c2c1CCCC2 | > 30 µM |
| CC(C)(C)OC(=O)CSc1nnc(Br)n1-c1ccc(C2CC2)c2ccccc12 | > 30 µM |
| Cc1nnc(SCC(=O)O)n1Cc1ccccc1 | > 30 µM |
| CCOC(=O)CSc1nncn1-c1ccc(C)c2ccc(C)cc12 [ethyl 2-(4-(4,7-dimethylnaphthalen-1-yl)-4H-1,2,4-triazol-3-ylthio)acetate] | 1 to 30 µM |
| CCOC(=O)CSc1nnc(C(F)F)n1-c1ccc(C)c2c1CCCN2 | > 30 µM |
| Cc1nnc(SCC(=O)O)n1-c1cccc(Cl)c1 | > 30 µM |
| CCOC(=O)CSc1nnc(Br)n1-c1ccc(C2CC2)c2ccccc12 | 0.001 to 1 µM |
| Cc1ccc(-n2c(C)nnc2SCC(=O)O)c(C)c1 | > 30 µM |
| CCOC(=O)C(C)(C)Sc1nnc(Br)n1-c1ccc(CC)c2ccccc12 | 0.001 to 1 µM |
| COc1ccccc1-n1c(C)nnc1SCC(=O)O | > 30 µM |
| CCc1ccc(-n2c(Br)nnc2SCC(=O)O)c2ccccc12 | 0.001 to 1 µM |
| COc1ccc2c(C3CC3)ccc(-n3c(Br)nnc3SCC(=O)O)c2c1 | 1 to 30 µM |
| CC(C)(C)c1ccc(-n2c(SCC(=O)O)nnc2C(F)F)c(Cl)c1 | > 30 µM |
| COc1ccc(-n2c(SCC(=O)O)nnc2C(F)(F)F)c2c1CCCC2 | 1 to 30 µM |
| Cc1nnc(SCC(=O)O)n1-c1ccc(C(=O)O)cc1 | > 30 µM |
| Cc1ccc(-n2c(SCC(N)=O)nnc2C(F)F)c2c1CCCC2 | 1 to 30 µM |
| CCOC(=O)C(C)Sc1nnc(Br)n1-c1ccc(C2CC2)c2ccccc12 (stereo not drawn) | 1 to 30 µM |
| O=C(O)CSc1nnc(-c2ccccc2)n1-c1ccc(C2CC2)c2ccccc12 | 1 to 30 µM |
| Cc1cc(C)c2ccccc2c1-n1c(SCC(=O)O)nnc1C(F)F | 1 to 30 µM |
